Data as given in patent publication US7271147B2, “Antibiotics, tripropeptins and process for producing the same” (Zaidan Hojin Biseibutsu Kagaku Kenkyu Kai, priority 2000, dated 2007).
In brackets after ≈: the same amount, converted by molar mass. Read-outs that look alike come from different tables or passages of the source. Starred links: 1 amine or outer side, 2 acyl side, 3 side chain; linkers in the order of their positions; H or OH if unused. Positions of bridges follow the written chain, without caps; N, C: chain ends. Non-standard residues stand in square brackets, D forms with d. Residues, ends and D or L forms follow the SMILES beside them. ξ: configuration not given here. X4 = CC(C)CCCCCCCCCCC(CC(=O)[*:1])O[*:2]; X2 = CC(C)CCCCCCCCCC(CC(=O)[*:1])O[*:2]; X6 = CC(C)CCCCCCCCC(CC(=O)[*:1])O[*:2]; X5 = CC(C)CCCCCCCC(CC(=O)[*:1])O[*:2]; X3 = CC(C)CCCCCCC(CC(=O)[*:1])O[*:2]; ξAsp(3ξ-OH) = NC(C(=O)O)C(O)C(=O)O; X1 = O=C(C1C(O)CCN1[*:1])[*:2]

Experiments:
[1] = system: Staphylococcus aureus MS16497 (methicillin-resistant); assay: Minimum growth inhibitory concentration, agar serial dilution; assay type: cell-based; settings: Mueller-Hinton agar
[2] = system: Staphylococcus aureus TY-03454 (methicillin-resistant); assay: as above; assay type: cell-based; settings: Mueller-Hinton agar
[3] = system: mice (ICR type, 4 weeks-aged, male); settings: mouse, in vivo, iv, 300 mg/kg
Description: However, an optimal dose of a tripropeptin can be decided by experts through suitable preliminary tests.

[4] = system: Bacillus cereus ATCC10702; assay: Minimum growth inhibitory concentration, agar serial dilution; assay type: cell-based
[5] = system: Staphylococcus aureus MS16526 (methicillin-resistant); assay: as above; assay type: cell-based; settings: Mueller-Hinton agar
[6] = system: Enterococcus faecalis JCM5803; assay: as above; assay type: cell-based; settings: 5% sheep blood-supplemented Mueller-Hinton agar
[7] = system: Staphylococcus aureus FDA209P; assay: as above; assay type: cell-based; settings: Mueller-Hinton agar
[8] = system: Enterococcus faecalis NCTC 12203 (vancomycin-resistant); assay: as above; assay type: cell-based; settings: NCTC12203, 5% sheep blood-supplemented Mueller-Hinton agar
[9] = system: Enterococcus faecium JCM5804; assay: as above; assay type: cell-based; settings: 5% sheep blood-supplemented Mueller-Hinton agar
[10] = system: Staphylococcus aureus MS16460 (methicillin-resistant); assay: as above; assay type: cell-based; settings: read-out: Minimum growth inhibitory concentration
[11] = system: Staphylococcus aureus Smith; assay: as above; assay type: cell-based; settings: Mueller-Hinton agar
[12] = system: Klebsiella pneumoniae PCI602; assay: as above; assay type: cell-based; settings: Mueller-Hinton agar
Shigella sonnei JS11746 = assay: as above; assay type: cell-based; settings: Mueller-Hinton agar
Protocol: (§1) Minimum growth inhibitory concentrations (μg/ml) of tripropeptin Z against a variety of microorganisms were measured on a Mueller-Hinton agar medium (manufactured by Difco Laboratories) or on a 5% sheep blood-supplemented Mueller-Hinton agar medium (manufactured by Difco Laboratories) for Enterococcus, by a serial dilution method according to the standard method as provided by Japanese Society of Chemotherapy.
as §1, with “A” for “Z”
as §1, with “B” for “Z”
as §1, with “C” for “Z”
as §1, with “D” for “Z”

Salmonella typhi T-63 = assay: as above; assay type: cell-based; settings: Salmonella enterica, Mueller-Hinton agar
[13] = system: Enterococcus faecium NCTC 12202 (vancomycin-resistant); assay: as above; assay type: cell-based; settings: NCTC12202, 5% sheep blood-supplemented Mueller-Hinton agar
Micrococcus luteus FDA16 = assay: as above; assay type: cell-based; settings: Mueller-Hinton agar
Bacillus anthracis = assay: microbe, parasite or virus in culture; assay type: cell-based; settings: read-out: Minimum growth inhibitory concentration
[14] = system: Staphylococcus aureus TY-00933 (methicillin-resistant); assay: Minimum growth inhibitory concentration, agar serial dilution; assay type: cell-based; settings: read-out: Minimum growth inhibitory concentration
[15] = system: Staphylococcus aureus TY-04282 (methicillin-resistant); assay: as above; assay type: cell-based; settings: Mueller-Hinton agar
[16] = system: Staphylococcus aureus MS9610 (multi-drug-resistant); assay: as above; assay type: cell-based; settings: Mueller-Hinton agar
[17] = system: Staphylococcus aureus TY-03456 (methicillin-resistant); assay: as above; assay type: cell-based; settings: read-out: Minimum growth inhibitory concentration
Bacillus subtilis PCI219 = assay: as above; assay type: cell-based; settings: Mueller-Hinton agar
[18] = system: Corynebacterium bovis 1810; assay: as above; assay type: cell-based; settings: Mueller-Hinton agar
[19] = system: Enterococcus faecium NCTC 12204 (vancomycin-resistant); assay: as above; assay type: cell-based; settings: NCTC12204, 5% sheep blood-supplemented Mueller-Hinton agar
[20] = system: Enterococcus faecalis NCTC 12201 (vancomycin-resistant); assay: as above; assay type: cell-based; settings: NCTC12201, 5% sheep blood-supplemented Mueller-Hinton agar
[21] = Bacillus cereus, ATCC10702, read-out: Minimum growth inhibitory concentration
[22] = Bacillus cereus ATCC10702, Mueller-Hinton agar, read-out: Minimum growth inhibitory concentration
[23] = Staphylococcus aureus TY-00933 (methicillin-resistant), Mueller-Hinton agar
[24] = Staphylococcus aureus TY-03456 (methicillin-resistant), Mueller-Hinton agar
[25] = Staphylococcus aureus MS16460 (methicillin-resistant), Mueller-Hinton agar

Compound	MIC [1]	MIC [2]	MIC [5]	MIC [6]	MIC [7]	MIC [8]	MIC [9]	MIC [11]	MIC [12]	MIC (Shigella sonnei JS11746)	MIC (Salmonella typhi T-63)	MIC [13]	MIC (Micrococcus luteus FDA16)	MIC (Bacillus anthracis)	MIC [15]	MIC [16]	MIC (Bacillus subtilis PCI219)	MIC [18]	MIC [19]	MIC [20]	also measured
CC(C)CCCCCCCCCC1CC(=O)NC(C(C)O)C(=O)N2CCCC2C(=O)N2CCCC2C(=O)NC(CCCNC(=N)N)C(=O)NC(C(O)C(=O)O)C(=O)NC(CO)C(=O)N2CCC(O)C2C(=O)NC(C(O)C(=O)O)C(=O)O1 (stereo not shown) [Tripropeptin C] (TPPR[ξAsp(3ξ-OH)]S[X1][ξAsp(3ξ-OH)]; linker N-C via X2; configuration not given here)	1.56 mg/L (≈ 1.35 µM)	1.56 mg/L (≈ 1.35 µM)	1.56 mg/L (≈ 1.35 µM)	12.5 mg/L (≈ 10.8 µM)	1.56 mg/L (≈ 1.35 µM)	25 mg/L (≈ 21.7 µM)	12.5 mg/L (≈ 10.8 µM)	1.56 mg/L (≈ 1.35 µM)	> 100 mg/L	> 100 mg/L	> 100 mg/L	12.5 mg/L (≈ 10.8 µM)	0.2 mg/L (≈ 0.173 µM)	3.13 mg/L (≈ 2.71 µM)	1.56 mg/L (≈ 1.35 µM)	1.56 mg/L (≈ 1.35 µM)	1.56 mg/L (≈ 1.35 µM)	0.39 mg/L (≈ 0.338 µM)	12.5 mg/L (≈ 10.8 µM)	6.25 mg/L (≈ 5.41 µM)	Toxicity [3]: did not exhibit any toxicity; MIC [4, 21]: 3.13 mg/L (≈ 2.71 µM); MIC ([10]; Staphylococcus aureus): 3.13 mg/L (≈ 2.71 µM); MIC ([14]; Staphylococcus aureus): 3.13 mg/L (≈ 2.71 µM); MIC ([17]; Staphylococcus aureus): 3.13 mg/L (≈ 2.71 µM)
CC(C)CCCCCCCCC1CC(=O)NC(C(C)O)C(=O)N2CCCC2C(=O)N2CCCC2C(=O)NC(CCCNC(=N)N)C(=O)NC(C(O)C(=O)O)C(=O)NC(CO)C(=O)N2CCC(O)C2C(=O)NC(C(O)C(=O)O)C(=O)O1 (stereo not shown) [Tripropeptin B] (TPPR[ξAsp(3ξ-OH)]S[X1][ξAsp(3ξ-OH)]; linker N-C via X6; configuration not given here)	3.13 mg/L (≈ 2.74 µM)	3.13 mg/L (≈ 2.74 µM)	3.13 mg/L (≈ 2.74 µM)	25 mg/L (≈ 21.9 µM)	1.56 mg/L (≈ 1.37 µM)	50 mg/L (≈ 43.8 µM)	25 mg/L (≈ 21.9 µM)	1.56 mg/L (≈ 1.37 µM)	> 100 mg/L	> 100 mg/L	> 100 mg/L	25 mg/L (≈ 21.9 µM)	0.2 mg/L (≈ 0.175 µM)	6.25 mg/L (≈ 5.48 µM)	3.13 mg/L (≈ 2.74 µM)	3.13 mg/L (≈ 2.74 µM)	1.56 mg/L (≈ 1.37 µM)	0.78 mg/L (≈ 0.684 µM)	25 mg/L (≈ 21.9 µM)	12.5 mg/L (≈ 11 µM)	MIC [4, 22]: > 100 mg/L; MIC ([10]; Staphylococcus aureus): 6.25 mg/L (≈ 5.48 µM); MIC [14, 23]: 3.13 mg/L (≈ 2.74 µM); MIC [17, 24]: 3.13 mg/L (≈ 2.74 µM)
CC(C)CCCCCCCC1CC(=O)NC(C(C)O)C(=O)N2CCCC2C(=O)N2CCCC2C(=O)NC(CCCNC(=N)N)C(=O)NC(C(O)C(=O)O)C(=O)NC(CO)C(=O)N2CCC(O)C2C(=O)NC(C(O)C(=O)O)C(=O)O1 (stereo not shown) [Tripropeptin A] (TPPR[ξAsp(3ξ-OH)]S[X1][ξAsp(3ξ-OH)]; linker N-C via X5; configuration not given here)	6.25 mg/L (≈ 5.55 µM)	6.25 mg/L (≈ 5.55 µM)	3.13 mg/L (≈ 2.78 µM)	50 mg/L (≈ 44.4 µM)	1.56 mg/L (≈ 1.39 µM)	50 mg/L (≈ 44.4 µM)	50 mg/L (≈ 44.4 µM)	0.78 mg/L (≈ 0.693 µM)	> 50 mg/L	> 100 mg/L	> 50 mg/L	50 mg/L (≈ 44.4 µM)	< 0.39 mg/L	25 mg/L (≈ 22.2 µM)	6.25 mg/L (≈ 5.55 µM)	6.25 mg/L (≈ 5.55 µM)	3.13 mg/L (≈ 2.78 µM)	1.56 mg/L (≈ 1.39 µM)	50 mg/L (≈ 44.4 µM)	50 mg/L (≈ 44.4 µM)	MIC [4, 22]: 12.3 mg/L (≈ 10.9 µM); MIC [10, 25]: 6.25 mg/L (≈ 5.55 µM); MIC [14, 23]: 6.25 mg/L (≈ 5.55 µM); MIC [17, 24]: 6.25 mg/L (≈ 5.55 µM)
CC(C)CCCCCCCCCCC1CC(=O)NC(C(C)O)C(=O)N2CCCC2C(=O)N2CCCC2C(=O)NC(CCCNC(=N)N)C(=O)NC(C(O)C(=O)O)C(=O)NC(CO)C(=O)N2CCC(O)C2C(=O)NC(C(O)C(=O)O)C(=O)O1 (stereo not shown) [Tripropeptin D] (TPPR[ξAsp(3ξ-OH)]S[X1][ξAsp(3ξ-OH)]; linker N-C via X4; configuration not given here)	0.78 mg/L (≈ 0.668 µM)	0.78 mg/L (≈ 0.668 µM)	0.78 mg/L (≈ 0.668 µM)	3.13 mg/L (≈ 2.68 µM)	0.39 mg/L (≈ 0.334 µM)	6.25 mg/L (≈ 5.35 µM)	6.25 mg/L (≈ 5.35 µM)	0.39 mg/L (≈ 0.334 µM)	> 100 mg/L	> 100 mg/L	> 100 mg/L	6.25 mg/L (≈ 5.35 µM)	0.2 mg/L (≈ 0.171 µM)	1.56 mg/L (≈ 1.34 µM)	0.78 mg/L (≈ 0.668 µM)	0.78 mg/L (≈ 0.668 µM)	0.78 mg/L (≈ 0.668 µM)	0.2 mg/L (≈ 0.171 µM)	6.25 mg/L (≈ 5.35 µM)	3.13 mg/L (≈ 2.68 µM)	MIC [4, 21]: 1.56 mg/L (≈ 1.34 µM); MIC ([10]; Staphylococcus aureus): 1.56 mg/L (≈ 1.34 µM); MIC [14, 23]: 0.78 mg/L (≈ 0.668 µM); MIC [17, 24]: 0.78 mg/L (≈ 0.668 µM)
CC(C)CCCCCCC1CC(=O)NC(C(C)O)C(=O)N2CCCC2C(=O)N2CCCC2C(=O)NC(CCCNC(=N)N)C(=O)NC(C(O)C(=O)O)C(=O)NC(CO)C(=O)N2CCC(O)C2C(=O)NC(C(O)C(=O)O)C(=O)O1 (stereo not shown) [Tripropeptin Z] (TPPR[ξAsp(3ξ-OH)]S[X1][ξAsp(3ξ-OH)]; linker N-C via X3; configuration not given here)	25 mg/L (≈ 22.5 µM)	25 mg/L (≈ 22.5 µM)	25 mg/L (≈ 22.5 µM)	100 mg/L (≈ 89.9 µM)	12.5 mg/L (≈ 11.2 µM)	> 100 mg/L	> 100 mg/L	6.25 mg/L (≈ 5.62 µM)	> 50 mg/L	> 100 mg/L	> 50 mg/L	> 100 mg/L	< 0.39 mg/L	100 mg/L (≈ 89.9 µM)	25 mg/L (≈ 22.5 µM)	25 mg/L (≈ 22.5 µM)	25 mg/L (≈ 22.5 µM)	6.25 mg/L (≈ 5.62 µM)	> 100 mg/L	100 mg/L (≈ 89.9 µM)	MIC [4, 22]: > 50 mg/L; MIC [10, 25]: 50 mg/L (≈ 45 µM); MIC [14, 23]: 25 mg/L (≈ 22.5 µM); MIC [17, 24]: 25 mg/L (≈ 22.5 µM)
